Laboratory results published in PubChem BioAssay AID2060898 (Molecular Pharmacology Branch, DTP, NCI, 2025).
pIC50: −log10 of the molar value.

System: 616215-338-R-J1-PDC complex spheroid viability
Experiment: Anticancer human tumor 616215-338-R-J1-PDC patient-derived colon adenocarcinoma cell line growth inhibition [RAS]
Conditions: for pIC50: curve of first compound; for viability, T/C: stronger effect = lower value; active = viability on the fitted dose curve at most 10% of control; inactive = the rest
How it was run: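 Tumour cells grown as complex spheroids with HUVEC endothelial cells and mesenchymal stem cells, treated with RAS pathway inhibitor combinations. Each agent spans half-log steps from near clinical Cmax, or 10 microM where Cmax is unknown.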

[1] = second compound 0.00316 µM, first compound 0.0316 µM
[2] = second compound 0.00316 µM, first compound 0.1 µM
[3] = second compound 0.00316 µM, first compound 0.316 µM
[4] = second compound 0.00316 µM, first compound 1 µM
[5] = second compound 0.00316 µM, first compound 3.16 µM
[6] = second compound 0.00316 µM, first compound 10 µM
[7] = second compound 0.01 µM, first compound 0.0316 µM
[8] = second compound 0.01 µM, first compound 0.1 µM
[9] = second compound 0.01 µM, first compound 0.316 µM
[10] = second compound 0.01 µM, first compound 1 µM
[11] = second compound 0.01 µM, first compound 3.16 µM
[12] = second compound 0.01 µM, first compound 10 µM
[13] = second compound 0.0316 µM, first compound 0.0316 µM
[14] = second compound 0.0316 µM, first compound 0.1 µM
[15] = second compound 0.0316 µM, first compound 0.316 µM
[16] = second compound 0.0316 µM, first compound 1 µM
[17] = second compound 0.0316 µM, first compound 3.16 µM
[18] = second compound 0.0316 µM, first compound 10 µM
[19] = second compound 0.1 µM, first compound 0.0316 µM
[20] = second compound 0.1 µM, first compound 0.1 µM
[21] = second compound 0.1 µM, first compound 0.316 µM
[22] = second compound 0.1 µM, first compound 1 µM
[23] = second compound 0.1 µM, first compound 3.16 µM
[24] = second compound 0.1 µM, first compound 10 µM
[25] = second compound 0.316 µM, first compound 0.0316 µM
[26] = second compound 0.316 µM, first compound 0.1 µM
[27] = second compound 0.316 µM, first compound 0.316 µM
[28] = second compound 0.316 µM, first compound 1 µM
[29] = second compound 0.316 µM, first compound 3.16 µM
[30] = second compound 0.316 µM, first compound 10 µM
[31] = second compound 1 µM, first compound 0.0316 µM
[32] = second compound 1 µM, first compound 0.1 µM
[33] = second compound 1 µM, first compound 0.316 µM
[34] = second compound 1 µM, first compound 1 µM
[35] = second compound 1 µM, first compound 3.16 µM
[36] = second compound 1 µM, first compound 10 µM
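Note: spheroids exposed to agents for seven days before viability readout.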
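Throughout, for viability, T/C: 100% = DMSO vehicle control viability.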

CC(C)NCC(C(=O)N1CCN(c2ncnc3c2C(C)CC3O)CC1)c1ccc(Cl)cc1 (stereo unspecified) + C=CC(=O)N1CCN(c2nc(OCC3CCCN3C)nc3c(F)c(-c4nc(N)cc(C)c4C(F)(F)F)c(Cl)cc23)C(C)C1
inactive: viability, T/C [1] 97.1% | viability, T/C [2] 110% | viability, T/C [3] 106% | viability, T/C [4] 112% | viability, T/C [5] 95% | viability, T/C [6] 45.9% | viability, T/C [7] 105% | viability, T/C [8] 98.1% | viability, T/C [9] 102% | viability, T/C [10] 116% | viability, T/C [11] 95.1% | viability, T/C [12] 45.5% | viability, T/C [13] 110% | viability, T/C [14] 114% | viability, T/C [15] 105% | viability, T/C [16] 115% | viability, T/C [17] 99.9% | viability, T/C [18] 54% | viability, T/C [19] 111% | viability, T/C [20] 106% | viability, T/C [21] 108% | viability, T/C [22] 107% | viability, T/C [23] 98.2% | viability, T/C [24] 50% | viability, T/C [25] 103% | viability, T/C [26] 106% | viability, T/C [27] 104% | viability, T/C [28] 108% | viability, T/C [29] 93.4% | viability, T/C [30] 48.5% | viability, T/C [31] 104% | viability, T/C [32] 94.9% | viability, T/C [33] 103% | viability, T/C [34] 117% | viability, T/C [35] 104% | viability, T/C [36] 47.7%
< 5.00: pIC50 (second compound 0.0316 µM)
5.01: pIC50 (second compound 0.316 µM)
5.00: pIC50 (second compound 0.1 µM)
5.02: pIC50 (second compound 1 µM)
5.04: pIC50 (second compound 0.00316 µM) | pIC50 (second compound 0.01 µM)

CC(C)n1nc(-c2ccc3oc(N)nc3c2)c2c(N)ncnc21 + C=CC(=O)N1CCN(c2nc(OCC3CCCN3C)nc3c(F)c(-c4nc(N)cc(C)c4C(F)(F)F)c(Cl)cc23)C(C)C1
< 7.00: pIC50 (second compound 0.00316 µM) | pIC50 (second compound 0.01 µM) | pIC50 (second compound 0.0316 µM) | pIC50 (second compound 0.1 µM) | pIC50 (second compound 0.316 µM) | pIC50 (second compound 1 µM)
inactive: viability, T/C (second compound 0.00316 µM, first compound 0.000316 µM) 107% | viability, T/C (second compound 0.00316 µM, first compound 0.001 µM) 109% | viability, T/C (second compound 0.00316 µM, first compound 0.00316 µM) 99.9% | viability, T/C (second compound 0.00316 µM, first compound 0.01 µM) 119% | viability, T/C [1] 120% | viability, T/C [2] 77.9% | viability, T/C (second compound 0.01 µM, first compound 0.000316 µM) 100% | viability, T/C (second compound 0.01 µM, first compound 0.001 µM) 111% | viability, T/C (second compound 0.01 µM, first compound 0.00316 µM) 107% | viability, T/C (second compound 0.01 µM, first compound 0.01 µM) 119% | viability, T/C [7] 117% | viability, T/C [8] 70.7% | viability, T/C (second compound 0.0316 µM, first compound 0.000316 µM) 105% | viability, T/C (second compound 0.0316 µM, first compound 0.001 µM) 109% | viability, T/C (second compound 0.0316 µM, first compound 0.00316 µM) 113% | viability, T/C (second compound 0.0316 µM, first compound 0.01 µM) 111% | viability, T/C [13] 114% | viability, T/C [14] 71.7% | viability, T/C (second compound 0.1 µM, first compound 0.000316 µM) 110% | viability, T/C (second compound 0.1 µM, first compound 0.001 µM) 100% | viability, T/C (second compound 0.1 µM, first compound 0.00316 µM) 111% | viability, T/C (second compound 0.1 µM, first compound 0.01 µM) 116% | viability, T/C [19] 109% | viability, T/C [20] 72.2% | viability, T/C (second compound 0.316 µM, first compound 0.000316 µM) 109% | viability, T/C (second compound 0.316 µM, first compound 0.001 µM) 108% | viability, T/C (second compound 0.316 µM, first compound 0.00316 µM) 111% | viability, T/C (second compound 0.316 µM, first compound 0.01 µM) 109% | viability, T/C [25] 129% | viability, T/C [26] 71.3% | viability, T/C (second compound 1 µM, first compound 0.000316 µM) 109% | viability, T/C (second compound 1 µM, first compound 0.001 µM) 99.6% | viability, T/C (second compound 1 µM, first compound 0.00316 µM) 118% | viability, T/C (second compound 1 µM, first compound 0.01 µM) 118% | viability, T/C [31] 115% | viability, T/C [32] 70%

C[C@@H](NC(=O)c1ncnc(N)c1Cl)c1ncc(C(=O)Nc2cc(C(F)(F)F)c(Cl)cn2)s1 + C=CC(=O)N1CCN(c2nc(OCC3CCCN3C)nc3c(F)c(-c4nc(N)cc(C)c4C(F)(F)F)c(Cl)cc23)C(C)C1
< 5.00: pIC50 (second compound 0.00316 µM) | pIC50 (second compound 0.01 µM) | pIC50 (second compound 0.0316 µM) | pIC50 (second compound 0.316 µM) | pIC50 (second compound 1 µM)
inactive: viability, T/C [1] 109% | viability, T/C [2] 111% | viability, T/C [3] 120% | viability, T/C [4] 140% | viability, T/C [5] 118% | viability, T/C [6] 53.5% | viability, T/C [7] 106% | viability, T/C [8] 114% | viability, T/C [9] 121% | viability, T/C [10] 120% | viability, T/C [11] 97.1% | viability, T/C [12] 59.9% | viability, T/C [13] 102% | viability, T/C [14] 112% | viability, T/C [15] 114% | viability, T/C [16] 119% | viability, T/C [17] 122% | viability, T/C [18] 59.5% | viability, T/C [19] 118% | viability, T/C [20] 103% | viability, T/C [21] 113% | viability, T/C [22] 114% | viability, T/C [23] 107% | viability, T/C [24] 48.6% | viability, T/C [25] 114% | viability, T/C [26] 104% | viability, T/C [27] 113% | viability, T/C [28] 117% | viability, T/C [29] 116% | viability, T/C [30] 65% | viability, T/C [31] 112% | viability, T/C [32] 98.6% | viability, T/C [33] 111% | viability, T/C [34] 131% | viability, T/C [35] 112% | viability, T/C [36] 61.2%
5.01: pIC50 (second compound 0.1 µM)
